Laboratory results published in patent US5846723A, “Methods for detecting the RNA component of telomerase” (Geron Corporation, priority 1996, dated 1998).

Key:
[1] = system: hTR in the context of the native telomerase enzyme; experiment: RNase H cleavage of hTR directed by antisense DNA oligonucleotides in native telomerase; type: biochemical, human; conditions: for RNaseH Digestion?: antisense DNA oligo, cleavage of hTR in native RNP, Table II; for ability to direct RNase H cleavage of hTR: native telomerase enzyme
Description: The regions were identified in two ways. The first way involved contacting samples containing human telomerase with a variety of DNA polynucleotides having sequences complementary to the sequence of hTR under hybridization conditions, contacting the telomerase with RNase H, which cleaves the RNA strand of an RNA-DNA duplex, and determining whether hTR had been cleaved. […] The second way involved oligo-decoration. […] Other accessible areas of hTR can be identified by similar assays using antisense polynucleotides whose sequences are substantially complementary to a nucleotide sequence selected from hTR.
A set of 17 contiguous antisense DNA oligonucleotides (30 mers) were tested for their ability to direct RNase H cleavage of hTR in the context of the native telomerase enzyme. […] Antisense oligonucleotides "14", "16", and "21" (see Table II) were tested as potential inhibitors of human telomerase ("hTase").
The accessible regions were "fine mapped" by using shorter antisense oligonucleotides to direct RNase H cleavage of hTR.

telomerase [2] = experiment: Capture of active telomerase on streptavidin beads by biotinylated 2'OMe antisense analogs; type: binding, human; conditions: for capture of active telomerase on streptavidin beads: biotinylated 2'OMe analogs; for Capture? (2'OMe): biotinylated 2'OMe antisense RNA analog of the oligo, streptavidin beads; for Capture? (2'OMe) / Activity on beads: Table II; for Activity on beads: telomerase activity on beads after capture by 2'OMe analog
Description: On the bases of the antisense data, biotinylated 2'OMe antisense RNA analogs were designed for affinity purification of telomerase. The goal of the antisense affinity approach was to design ligands that afforded good purification and yield, while keeping the enzyme intact (i.e., active). Several 2'OMe ligands met our criteria (Table II, FIG. 1). […] These analogs were further refined via the synthesis of second generation antisense affinity ligands, which were designed to allow release of active telomerase (reversible ligands). Currently, our affinity scheme consists of two reversible antisense ligands, which are employed in series, and target two different regions of hTR. The first ligand is a disulfide version of 14ab which allows release of telomerase via dithiothreitol treatment. The second ligand contains the 21ab1 antisense sequence and plus a tail of "nonsense" sequence. hTR is released from the antisense ligand by a displacement DNA oligonucleotide, which is complementary to the entire length of the 21ab1 antisense affinity ligand.

[3] = system: human telomerase ("hTase"); experiment: Inhibition of human telomerase, standard primer elongation assay; type: biochemical; conditions: preincubation of partially purified nuclear or cytoplasmic extract with oligonucleotide
[4] = system: telomerase ribonucleoprotein; experiment: Oligodecoration: native gel mobility shift with labeled 2'-O-methyl antisense polynucleotides; type: binding, human; conditions: radioactively labeled 2'-O-methyl antisense polynucleotide; altered mobility on native gel
Protocol: Oligodecoration was used to further identify accessible regions of the telomerase ribonucleoprotein. Radioactively labeled 2 0-methyl antisense polynucleotides were prepared and exposed to the telomerase ribonucleoprotein. The sample was incubated to allow the polynucleotide to bind to telomerase. Then the sample was run on a native gel. […] RP2 has the sequence CGG GCC AGC AGC TGA CA (SEQ ID NO:14).

telomerase [5] = experiment: Capture of telomerase on an affinity matrix; type: binding, human

Substance | RNaseH Digestion? [1] | Capture? (2'OMe) (telomerase [2]) | ability to direct RNase H cleavage of hTR [1] | other results
5' GCT CTA G 3' [Oligo 21ab1] | yes | yes |  | capture of active telomerase on streptavidin beads (telomerase [2]): "captured" active telomerase; Activity on beads (telomerase [2]): yes
5' CTGACAGAGCCCAACTCTTCGCGGTGGCAG 3' (antisense CTGACAGAGCCCAACTCTTCGCGGTGGCAG; chemistry not given here) [Oligo 16, antisense DNA 30 mer against hTR nucleotides 290-319] | yes |  | directed efficient cleavage of hTR | inhibition of hTase activity [3]: did not significantly affect hTase activity
5' CCTGCGGCCTGAAACGGTGA 3' (antisense CCTGCGGCCTGAAACGGTGA; chemistry not given here) [Oligo 14bc, antisense 20 mer of the "14" region] | no |  |  | 
5' CGTTCCTCTTCCTGCGGCCTGAAACGGTGA 3' (antisense CGTTCCTCTTCCTGCGGCCTGAAACGGTGA; chemistry not given here) [Oligo 14, antisense DNA 30 mer against hTR nucleotides 350-380] | yes |  | directed efficient cleavage of hTR | inhibition of hTase activity [3]: did not significantly affect hTase activity
5' GCT CTA GAA TG 3' (antisense GCTCTAGAATG; chemistry not given here) [Oligo 21ab2, shorter antisense oligo of the "21" region] | yes | yes |  | 
5' CATTTTTTGTTTGCTCTAGA 3' (antisense CATTTTTTGTTTGCTCTAGA; chemistry not given here) [20/21, antisense 20 mer] | yes |  |  | 
5' CGT TCC TCT TCC 3' (antisense CGTTCCTCTTCC; biotinylated 2'OMe, further chemistry not given here) [Oligo 14d, antisense 12 mer of the "14" region; biotinylated 2'OMe analog used for capture] | yes | yes | directed RNase H cleavage | capture of active telomerase on streptavidin beads (telomerase [2]): "captured" active telomerase; Activity on beads (telomerase [2]): yes
5' CTGACAGAGCCCAACTCTTC 3' (antisense CTGACAGAGCCCAACTCTTC; chemistry not given here) [Oligo 16ab, antisense 20 mer of the "16" region] | yes | yes | directed RNase H cleavage | Activity on beads (telomerase [2]): no
CGG GCC AGC AGC TGA CA (antisense CGGGCCAGCAGCTGACA; 2'-O-methyl, further chemistry not given here) [RP2] |  |  |  | binding to the telomerase ribonucleoprotein [4]: found to bind; ability to capture telomerase on an affinity matrix (telomerase [5]): demonstrated an ability to capture telomerase
5' GCT CTA GAA TGA ACG GTG G 3' (antisense GCTCTAGAATGAACGGTGG; chemistry not given here) [Oligo 21ab, shorter antisense oligo of the "21" region] | yes | yes |  | 
5' CCAACTCTTCGCGGTGGCAG 3' (antisense CCAACTCTTCGCGGTGGCAG; chemistry not given here) [Oligo 16bc, antisense 20 mer of the "16" region] | yes | yes | directed RNase H cleavage | 
5' CGT TCC TCT TCC TGC G9C CT 3' [Oligo 14ab] | yes | yes | directed RNase H cleavage | capture of active telomerase on streptavidin beads (telomerase [2]): "captured" active telomerase; Activity on beads (telomerase [2]): yes
5' GCTCTAGAATGAACGGTGGAAGGCGGCAGG 3' (antisense GCTCTAGAATGAACGGTGGAAGGCGGCAGG; chemistry not given here) [Oligo 21, antisense DNA 30 mer directed against nucleotides 137 to 166 of hTR] | yes |  | directed efficient cleavage of hTR | inhibition of hTase activity [3]: potent inhibition of hTase
5' GCT CTA GAA TGA ACG 3' (antisense GCTCTAGAATGAACG; chemistry not given here) [Oligo 21ab3, shorter antisense oligo of the "21" region] | yes |  |  | 
